pIC50: −log10 of the molar value.
Experiments:
[1] = molecular target: T1, Human Kv1.5 channels (Homo sapiens, UniProt P22460); test: Activity on the Kv1.5 channel, two-microelectrode voltage clamp on xenopus oocytes; assay type: cell-based; details: human Kv1.5 expressed in Xenopus laevis oocytes; percent inhibition of control current fitted with Hill equation; room temperature; read-out: Kv1.5 IC-50
T1 construct: expressed in transfected cells; host or cells: Xenopus laevis oocytes (injection of RNA synthesized in vitro)
T1 sequence (P22460 whole entry): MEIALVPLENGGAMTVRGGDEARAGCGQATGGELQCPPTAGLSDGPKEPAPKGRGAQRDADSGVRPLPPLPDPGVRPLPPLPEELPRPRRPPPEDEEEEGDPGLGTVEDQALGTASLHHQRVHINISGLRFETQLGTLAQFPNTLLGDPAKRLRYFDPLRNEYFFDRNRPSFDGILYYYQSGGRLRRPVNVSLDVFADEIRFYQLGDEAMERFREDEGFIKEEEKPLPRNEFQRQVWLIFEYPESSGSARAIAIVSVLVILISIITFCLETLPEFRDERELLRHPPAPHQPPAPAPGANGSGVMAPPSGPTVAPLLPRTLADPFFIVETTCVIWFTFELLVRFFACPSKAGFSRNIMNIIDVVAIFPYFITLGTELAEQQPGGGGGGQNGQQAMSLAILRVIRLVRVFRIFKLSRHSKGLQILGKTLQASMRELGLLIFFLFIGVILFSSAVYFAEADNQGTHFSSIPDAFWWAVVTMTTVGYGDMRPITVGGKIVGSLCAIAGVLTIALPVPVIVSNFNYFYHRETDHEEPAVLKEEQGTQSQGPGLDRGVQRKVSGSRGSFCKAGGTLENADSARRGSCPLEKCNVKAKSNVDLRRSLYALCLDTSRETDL
Protocol: Determination of the Activity on the Kv1.5 Channel
Human Kv1.5 channels were expressed in xenopus oocytes. For this purpose, firstly oocytes were isolated from Xenopus laevis and defolliculated. Kv1.5-encoding RNA synthesized in vitro was then injected into these oocytes. After Kv1.5 protein expression for 1-7 days, Kv1.5 currents were measured on the oocytes using the two-microelectrode voltage clamp technique. The Kv1.5 channels were in this case usually activated with voltage jumps lasting 500 ms to 0 mV and 40 mV. A solution of the following composition flowed through the bath: NaCl 96 mM, KCl 2 mM, CaCl2 1.8 mM, MgCl2 1 mM, HEPES 5 mM (titrated to pH 7.4 with NaOH). These experiments were carried out at room temperature. The following were employed for data acquisition and analysis: Geneclamp amplifier (Axon Instruments, Foster City, USA) and MacLab D/A converter and software (ADinstruments, Castle Hill, Australia). The substances of the invention were tested by adding them in various concentrations to the bath solution. The effects of the substances were calculated as percent inhibition of the Kv1.5 control current which was obtained when no substance was added to the solution. The data were then extrapolated using the Hill equation in order to determine the inhibitory concentrations IC50 for the respective substances.

[2] = molecular target: Human TASK-1 channels (UniProt O14649); test: Activity on the TASK-1 channel, two-microelectrode voltage clamp on xenopus oocytes; assay type: cell-based; details: TASK-1 expressed in Xenopus laevis oocytes; percent inhibition of control current fitted with Hill equation; room temperature; read-out: mTask-1 IC-50
Protocol: Determination of the Activity on the TASK-1 Channel
Human TASK-1 channels were expressed in xenopus oocytes. For this purpose, firstly oocytes were isolated from Xenopus laevis and defolliculated. TASK-1-encoding RNA synthesized in vitro was then injected into these oocytes. After TASK-1 protein expression for 2 days, TASK-1 currents were measured on the oocytes using the two-microelectrode voltage clamp technique. The TASK-1 channels were in this case usually activated with voltage jumps lasting 250 ms to 40 mV. A solution of the following composition flowed through the bath: NaCl 96 mM, KCl 2 mM, CaCl2 1.8 mM, MgCl2 1 mM, HEPES 5 mM (titrated to pH 7.4 with NaOH). These experiments were carried out at room temperature. The following were employed for data acquisition and analysis: Geneclamp amplifier (Axon Instruments, Foster City, USA) and MacLab D/A converter and software (ADinstruments, Castle Hill, Australia). The substances of the invention were tested by adding them in various concentrations to the bath solution. The effects of the substances were calculated as percent inhibition of the TASK-1 control current which was obtained when no substance was added to the solution. The data were then extrapolated using the Hill equation in order to determine the half-maximum inhibitory concentrations (IC50) for the respective substances.

Row | SMILES | pIC50 [1] | pIC50 [2]
1 | COc1ccc(CO[C@H](c2ccc(OC)cc2)[C@@H](c2ccc(F)cc2)n2ccccc2=O)cc1 (racemic) [Example 13, 1R′,2R′-1-[1-(4-Fluorophenyl)-2-(4-methoxybenzyloxy)-2-(4-methoxyphenyl)ethyl]-1H-pyridin-2-one] | 5.35 | 
2 | O=c1ccc(F)cn1[C@H](c1ccccc1)[C@H](OCC1CC1)c1ccccc1 (racemic) [Example 12, 1R′,2R′-1-(2-Cyclopropylmethoxy-1,2-diphenylethyl)-5-fluoro-1H-pyridin-2-one] | 5.83 | 
3 | COc1ccc([C@@H](OCC2CC2)[C@@H](c2ccc(F)cc2)n2ccccc2=O)cc1 (racemic) [Example 17, 1R′,2R′-1-[2-Cyclopropylmethoxy-1-(4-fluorophenyl)-2-(4-methoxyphenyl)ethyl]-1H-pyridin-2-one] | 5.74 | 
4 | N#Cc1ccc(COC(c2ccc(Cl)cc2)C(c2ccccc2)n2ccccc2=O)cc1 (racemic) [Example 15, 4-[1-(4-Chlorophenyl)-2-(2-oxo-2H-pyridin-1-yl)-2-phenylethoxymethyl]benzonitrile] | 5.60 | 
5 | O=c1cccnn1C(c1ccccc1)C(OCC1CC1)c1ccc(Cl)cc1 (racemic) [Example 4, 2-[2-(4-Chlorophenyl)-2-cyclopropylmethoxy-1-phenylethyl]-2H-pyridazin-3-one] | 5.98 | 
6 | COc1ccc([C@@H](OCC2CC2)[C@H](c2ccc(F)cc2)n2ccccc2=O)cc1 (racemic) [Example 2, 1R′,2S′-1-[2-Cyclopropylmethoxy-1-(4-fluorophenyl)-2-(4-methoxy-phenyl)ethyl]-1H-pyridin-2-one] | 5.89 | 
7 | O=c1ccc(F)cn1C(c1ccc(F)cc1)C(OC1CC1)c1ccc(F)cc1 (racemic) [Example 6, 1-[2-Cyclopropoxy-1,2-bis-(4-fluorophenyl)ethyl]-5-fluoro-1H-pyridin-2-one] | 5.19 | 
8 | N#Cc1ccc(O[C@H](c2ccc(F)cc2)[C@@H](c2ccc(F)cc2)n2cc(F)ccc2=O)cc1 (racemic) [Example 5, 1R′,2R′-5-Fluoro-1-(2-p-cyanophenoxy-1,2-di-p-fluorophenylethyl)-1H-pyridin-2-one] | 4.30 to 4.70 | 
9 | O=c1ccc(F)cn1C(c1ccc(F)cc1)C(OCC1CC1)c1ccc(F)cc1 (racemic) [Example 16, 1-[2-Cyclopropylmethoxy-1,2-bis-(4-fluorophenyl)ethyl]-5-fluoro-1H-pyridin-2-one] | 5.34 | 
10 | N#Cc1ccc(C(OCC2CC2)C(c2ccc(F)cc2)n2ccccc2=O)cc1 (racemic) [Example 11, 4-[1-Cyclopropylmethoxy-2-(4-fluorophenyl)-2-(2-oxo-2H-pyridin-1-yl)ethyl]benzonitrile] | 5.69 | 
11 | O=c1ccccn1C(c1ccc(F)cc1)C(OCC1CC1)c1ccc(F)cc1 (racemic) [Example 14, 1-[2-Cyclopropylmethoxy-1,2-bis-(4-fluorophenyl)ethyl]-1H-pyridin-2-one] | 5.85 | 
12 | COc1ccc(CO[C@H](c2ccc(OC)cc2)[C@H](c2ccc(F)cc2)n2ccccc2=O)cc1 (racemic) [Example 18, 1R′,2S′-1-[1-(4-Fluorophenyl)-2-(4-methoxybenzyloxy)-2-(4-methoxyphenyl)ethyl]-1H-pyridin-2-one] | 5.57 | 

Now those with a higher pIC50 [1], led by results:

Row | pIC50 [1] | pIC50 [2] | SMILES
13 | 6.06 |  | O=c1ccccn1C(c1ccc(F)cc1)C(OCC1CC1)c1ccc(Br)cc1 (racemic) [Example 10, 1-[2-(4-Bromophenyl)-2-cyclopropylmethoxy-1-(4-fluorophenyl)ethyl]-1H-pyridin-2-one]
14 | 6.11 |  | O=c1ccc(F)cn1C(c1ccccc1)C(OCC1CC1)c1ccccc1 (racemic) [Example 3, 1-(2-Cyclopropylmethoxy-1,2-diphenylethyl)-5-fluoro-1H-pyridin-2-one]
15 | 6.39 | 5.51 | O=c1ccccn1[C@@H](c1ccc(F)cc1)[C@H](OCC1CC1)c1ccc(F)cc1 (racemic) [Example 9, 1R′,2S′-1-[2-Cyclopropylmethoxy-1,2-bis-(4-fluorophenyl)ethyl]-1H-pyridin-2-one]
16 | 6.42 |  | O=c1ccccn1[C@H](c1ccccc1)[C@H](OCC1CC1)c1ccccc1 (racemic) [Example 1, 1R′,2R′-1-(2-Cyclopropylmethoxy-1,2-diphenylethyl)-1H-pyridin-2-one]
17 | 6.48 |  | O=c1ccccn1[C@H](c1ccc(F)cc1)[C@H](OCC1CC1)c1ccc(F)cc1 (racemic) [Example 8, 1R′,2R′-1-[2-Cyclopropylmethoxy-1,2-bis(4-fluorophenyl)ethyl]-1H-pyridin-2-one]
18 | 6.74 |  | O=c1ccccn1C(c1ccccc1)C(OCC1CC1)c1ccc(Cl)cc1 (racemic) [Example 7, 1-[2-(4-Chlorophenyl)-2-cyclopropylmethoxy-1-phenylethyl]-1H-pyridin-2-one]

— US8044074B2, “Substituted heterocycles, their use as medicament, and pharmaceutical preparations comprising them” (Sanofi-Aventis, priority 2005, dated 2011)
